# Source: patent US11691984B2, “Compounds and methods for DCAF-mediated protein degradation” (The Scripps Research Institute, priority 2018, dated 2023)
# How the values were obtained:
# FLAG-FKBP12_NLS [1] = molecular target: T1, FLAG-FKBP12_NLS (Homo sapiens, UniProt P62942); assay: Western blot of FLAG-FKBP12_NLS in DCAF16+/+ and DCAF16−/− HEK293 clones; format: cell-based; design: expressed in transfected cells; host or cells: HEK293 DCAF16+/+ and DCAF16-/- clones (lentiviral pCDH-CMV-MCS-EF1-Puro)
# Experimental: DCAF16 CRISPR knockout HEK293 cell pools were generated by Synthego using nucleofection of Cas9-gRNA ribonucleoprotein (RNP) complex. Editing efficiency 48 h post nucleofection of cell pool was 88%. HEK293 editing cell pools were subjected to single cell sorting in The Flow Cytometry Core Facility at Scripps Research. Individual cell clone was grown in 96-well plate until the cells were confluent. To confirm the editing in DCAF16 gene, genomic DNAs from each clone were extracted using PureLink Genomic DNA Mini Kit (Invitrogen). DCAF16 gene was amplified by PCR and confirmed by DNA sequencing. Indel analysis was performed using ICE analysis from Synthego.
# To confirm DCAF16 knockout at the protein level, lentivirus containing FLAG-FKBP12_NLS was used to infect three wild type DCAF16 clones (clone 6, 17, 18) and three DCAF16 knockout clones (clone 3, 4, 22). Clone 6 stably expressing FLAG-FKBP12_NLS was grown in heavy SILAC DMEM medium for 5 generations. The other clones stably expressing FLAG-FKBP12_NLS were grown in light SILAC DMEM medium for 5 generations. All 6 clones were treated with 5 μM KB02-SLF and 10 μM MG132 for 2 h. Cells were collected and analyzed for FLAG-FKBP12_NLS associating proteins using the same method described below. Proteins from clone 6 (heavy labeled) were combined with the other clones (light labeled) separately and identified by LC-MS/MS.
# (§1) Cells were collected and lysed in 1% NP-40 lysis buffer (25 mM Tris-HCl pH 7.4, 150 mM NaCl, 10% glycerol, 1% Nonidet P-40) with complete protease inhibitor cocktail (Roche). Cells were vortexed and sonicated for 5 pulses (40%, 4). The supernatant was collected after centrifugation at 16,000 g for 10 min at 4° C. Protein concentration was determined by DC assay (Bio-Rad). Protein lysate was heated at 95° C. for 5 min in 1× Laemmli sample buffer. Proteins were resolved by 12% or 14% Novex Tris-Glycine Mini Gels (Invitrogen) and transferred to polyvinylidene fluoride (PVDF) membrane (0.2 Bio-Rad). The membrane was blocked with 5% BSA in TBST buffer (0.1% Tween 20, 20 mM Tris-HCl 7.6, 150 mM NaCl) at room temperature for 1 h. The antibody was diluted with fresh 5% BSA in TBST buffer (1:10000 dilution for FLAG, HA and β-Actin, 1:1000 dilution for others) and incubated with membrane (1 h room temperature for FLAG, HA and β-Actin, overnight 4° C. for others). Membrane was washed three times with TBST buffer and incubated with secondary antibody (1:5000 dilution in 5% BSA in TBST) at room temperature for 1 h. Membrane was washed three times with TBST buffer. The chemiluminescence signal in membrane was recorded after developing in ECL or ECL plus western blotting detection reagent using CL-XPosure film (Thermo Scientific). Relative band intensities were quantified using ImageJ.
# Target sequence in this assay (P62942 with tags, fused parts or gaps): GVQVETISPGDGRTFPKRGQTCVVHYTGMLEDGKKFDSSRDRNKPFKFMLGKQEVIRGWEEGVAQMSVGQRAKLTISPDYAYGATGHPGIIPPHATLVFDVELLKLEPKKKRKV
# FLAG-FKBP12_NLS [2] = molecular target: T1, FLAG-FKBP12_NLS; assay: Anti-FLAG western blot of stably expressed nuclear FKBP12 (FLAG-FKBP12_NLS) in HEK293T cells; format: cell-based; design: expressed in transfected cells; host or cells: HEK293T, MDA-MB-231 and HEK293 DCAF16+/+ and DCAF16-/- clones (lentiviral pCDH-CMV-MCS-EF1-Puro); settings: HEK293T
# Excerpt: FLAG-tagged variants of FKBP12 (FLAG-FKBP12) or (2) FKBP12 with a C-terminal nuclear localization sequence (FLAG-FKBP12_NLS) were then stably expressed in HEK293T cells to provide cell models for evaluating cytosolic- and nuclear-localized E3-mediated degradation pathways, respectively.
# FLAG-FKBP12 or FLAG-FKBP12_NLS lentivirus was generated by co-transfection of FLAG-FKBP12 or FLAG-FKBP12_NLS, pCMV-dR8.2 and pMD2.G into HEK 293T cells using FuGene 6 transfection reagent (Promega). Virus-containing medium were collected 48 h after transfection, filtered with […] filter, and used to transduce HEK293T and MDA-MB-231 cells in the presence of 10 μg/mL polybrene (Santa Cruz). 72 h after transduction, puromycin (2 μg/mL) was added to cells. HEK293T cells stably expressing FLAG-FKBP12 or FLAG-FKBP12_NLS were obtained after puromycin selection for 7 days. HEK293T cells stably expressing pCDH empty vector were generated in parallel as control.
# shRNA lentivirus was generated by co-transfection of shRNA-containing vector, pCMV-dR8.2 and pMD2.G into HEK 293T cells using FuGene 6 transfection reagent (Promega). Virus-containing medium were collected 48 h after transfection and used to transiently transduce HEK293T cells stably expressing FLAG-FKBP12_NLS for 48 h. Lentiviral shRNAs targeting human DCAF16 or DTL were in pLKO.1 vector and purchased from Sigma. The sequences of shRNAs is described below.
# as §1
# Target sequence in this assay (P62942 whole entry): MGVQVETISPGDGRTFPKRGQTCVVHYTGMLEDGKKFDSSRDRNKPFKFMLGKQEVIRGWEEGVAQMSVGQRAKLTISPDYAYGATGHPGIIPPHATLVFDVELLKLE
smiles,measurement,setting,value
"CCC(C)(C)C(=O)C(=O)N1CCCC[C@H]1C(=O)O[C@H](CCc1ccc(OC)c(OC)c1)c1cccc(NC(=O)CCOCCOCCNC(=O)COc2ccc3c(c2)CCCN3C(=O)CCl)c1 [KB02-SLF, (R)-1-(3-(3-(2-(2-(2-((1-(2-chloroacetyl)-1,2,3,4-tetrahydroquinolin-6-yl)oxy)acetamido)ethoxy)ethoxy)propanamido)phenyl)-3-(3,4-dimethoxyphenyl)propyl (S)-1-(3,3-dimethyl-2-oxopentanoyl)piperidine-2-carboxylate]",degradation of FKBP12_NLS in DCAF16−/− clones,"FLAG-FKBP12_NLS [1]; HEK293 clones 3, 4, 22, 0.2-5 μM, 8 h",not in any of the three DCAF16−/− clones
same,degradation of FKBP12_NLS in DCAF16+/+ clones,"FLAG-FKBP12_NLS [1]; HEK293 clones 6, 17, 18, 0.2-5 μM, 8 h",supported the degradation of FKBP12_NLS in all three DCAF16+/+ clones
same,"FKBP12_NLS degradation in DCAF16−/− cells expressing C58S-, C173S- or C178S-DCAF16","FLAG-FKBP12_NLS [1]; KB02-SLF 1.5 μM, 8 hours",supported KB02-SLF-induced degradation of FKBP12_NLS
same,FKBP12_NLS degradation in DCAF16−/− cells with recombinant HA-DCAF16,"FLAG-FKBP12_NLS [1]; KB02-SLF 1.5 μM, 8 hours",restored KB02-SLF-induced FKBP12_NLS degradation
same,concentration for degradation of FKBP12_NLS,FLAG-FKBP12_NLS [2],0.5 to 2 µM
same,nuclear FKBP12 (FKBP12_NLS) protein level,"FLAG-FKBP12_NLS [2]; 2 μM, 8 or 24 h",substantial reduction in nuclear FKBP12
same,KB02-SLF-mediated degradation of FKBP12_NLS after shRNA knockdown of DCAF16,"FLAG-FKBP12_NLS [2]; KB02-SLF 2 μM, 8 h",substantially prevented KB02-SLF-mediated degradation of FKBP12_NLS
same,KB02-SLF-mediated degradation of FKBP12_NLS after shRNA knockdown of DTL,"FLAG-FKBP12_NLS [2]; KB02-SLF 2 μM, 8 h",not DTL
same,time frame across which the reduction in nuclear FKBP12 was sustained,"FLAG-FKBP12_NLS [2]; KB02-SLF, FIG. 5A",4 to 72 h
same,concentration across which loss of FKBP12_NLS was promoted,"FLAG-FKBP12_NLS [2]; reductions in activity at higher concentrations, in µM",0.5-5
